In paper PMC7352759, “S(+)-(2E)-N-(2-Hydroxypropyl)-3-Phenylprop-2-Enamide (KM-568): A Novel Cinnamamide Derivative with Anticonvulsant Activity in Animal Models of Seizures and Epilepsy” (International Journal of Molecular Sciences, 2020):

Experiments:
[1] = Ames microplate format (MPF) assay, TA1537; settings: Salmonella typhimurium
From the text: (§1) The Ames microplate format (MPF) mutagenicity assay (Xenometrix, Allschwil, Switzerland) was used to test KM-568 mutagenicity. Growth, exposure, and indicator media, positive control chemicals, and four Salmonella typhimurium strains TA98, TA100, TA1535 and TA1537 were included in the kit. TA100 and TA1535 strains detect base substitution mutations, whereas TA98 and TA1537 indicate frameshift mutations. The strains of bacteria included in a kit are in compliance with the Organization for Economic Cooperation and Development (OECD) 471 Guideline for Testing of Chemicals.
(§2) The assay is a liquid microplate modification of the traditional Salmonella test. During the procedure, bacteria are exposed to different concentrations of a test compound for 90 min in a medium containing sufficient histidine to support cell divisions. Then, the cultures are diluted in a pH indicator medium lacking histidine and aliquoted into 48 wells of a 384-well plate. Within 2 days, bacteria that have undergone reversion to amino acid prototrophy will form colonies. Products of bacteria metabolism reduce pH of the medium, changing the color of wells from purple to yellow.
(§3) The test procedure provided by Xenometrix and described in detail elsewhere was followed. Bacterial strains were grown overnight (14–16 h) in exposure medium in a shaker incubator and then exposed to KM-568 in 24-well plates for 90 min at 37 °C with agitation. Final KM-568 concentrations in the assay were 0.1, 0.2, and 0.5 mM. After preincubation, the cultures were diluted in the indicator medium and the contents of each 24-well culture were transferred to 48 wells on a 384-well plate and incubated further for 48 h at 37 °C without agitation. After the exposure, the number of wells containing bacteria was scored for yellow wells. […] Pure DMSO was used as a negative control. All doses were performed in triplicate.
(§4) The fold increase of revertants relative to the solvent control was determined by dividing the mean number of positive wells at each dose by the solvent control at baseline. The solvent control at baseline was calculated as the mean number of positive wells in the solvent control plus one standard deviation (SD). When an increase of more than twofold relative to the baseline at more than one dose with a dose–response was observed, the sample was classified as positive, whereas when no response > 2 times the baseline and no dose–response was stated, the sample was classified as negative.

[2] = test system: CF-1 mice; assay: Chemoconvulsant test, picrotoxin; format: in vivo; settings: 0.25 h; for Picrotoxin Results (protected/tested animals): i.p.
Method: (§5) After 0.25 h, the subcutaneous injections of either bicuculine (2.7 mg/kg) or picrotoxin (2.5 mg/kg) were performed. The, animals were placed in isolation cages and observed for 30 min (in a bicuculine assay) or 45 min (in a picrotoxin assay) for the presence or absence of an episode of a clonic seizure.

[3] = test system: mice; assay: Formalin test of hyperalgesia; format: in vivo; settings: 44 mg/kg i.p.; for Reduction of time of licking of the affected paw: not statistically significant; for AUC % Control: vs methylcellulose
Method: 0.05% formalin was injected subdermal to the hindpaws of mice, which caused licking. In the tested group (n = 8), KM-568 was administered intraperitoneally 0.25 h prior to formalin at the dose of 44 mg/kg. In the control group, methylcellulose was used. Animals were then observed for the first 2 min of each 5 min for a total of 40 min. The cumulative duration of licking (in sec) during each 2-min recording period was measured for analysis across compound and vehicle-pretreated groups.

[4] = test system: CF-1 mice; assay: Intravenous metrazol seizure threshold test (ivMET); format: in vivo; settings: 0.25 h, mean ± SEM; for Time to clonus / Time to twitch: ten animals
Method: Then, 0.5% metrazol solution was then infused at a previously determined time-to-peak effect (0.25 h). The infusion was done at a constant rate of 0.34 mL/min through a tube cannulating a lateral tail vein of a test animal. The time from the start of the infusion to the appearance of the first twitch (time to twitch in sec) and the onset of sustained clonus (time to clonus in sec) were recorded. These times were also converted to the dose of metrazol (in mg/kg) causing first twitch and clonus.

[5] = test system: rat cerebral cortex NMDA receptor; assay: NMDA receptor radioligand binding ([3H]CGP39653); settings: 10 µM; antagonist radioligand
Method: In order to identify molecular mechanism of action, KM-568 was tested at 10 µM in three radioligand binding assays: rat cerebral cortex GABA receptor non-selective agonist radioligand, AMPA (α-amino-3-hydroxy-5-methyl-4-isoxazolepropionic acid) receptor agonist radioligand, and NMDA (N-methyl-D-aspartate) receptor antagonist radioligand as well as one functional assay involving a human recombinant TRPV1 receptor expressed in CHO cells (agonist and antagonist effects).
Tests were performed by Eurofins Cerep (Eurofins CEREP SA, Celle-Lévescault, France) as a commercial service. In radioligand assays, rat cerebral cortex GABA receptor as well as rat cerebral cortex AMPA (α-amino-3-hydroxy-5-methyl-4-isoxazolepropionic acid) and NMDA (N-methyl-D-aspartate) receptors with 10 nM [^3H]GABA, 8 nM [^3H]AMPA, and 5 nM [^3H]CGP39653, respectively, were used. The results were detected by means of scintillation counting. In functional assays, a human recombinant TRPV1 receptor expressed in Chinese hamster ovary (CHO) cells with 1 µM capsaicin or 30 nM capsazepine were used. Fluorimetry was used as a detection method.

[6] = test system: CF-1 mice; assay: Chemoconvulsant test, bicuculine; format: in vivo; settings: 0.25 h
Method: as §5, with “Initially, compound KM-568 was administered i.p. at 130.0 mg/kg in two groups of CF-1 mice (n = 8). After” for “After”

[7] = Ames microplate format (MPF) assay, TA98; settings: Salmonella typhimurium
From the text: as §1, §2, §3, §4

[8] = test system: Frings audiogenic seizure-susceptible mice; assay: Frings audiogenic seizure-susceptible mouse model; format: in vivo; settings: 0.25 h; for Results (protected/tested animals): Frings mice, i.p.
Method: Frings audiogenic seizure-susceptible mice are genetically susceptible to sound-induced reflex seizures. Mice (18–25 g) were administered i.p. compound KM-568 at the doses in the range of 10.0–17.5 mg/kg. Fifteen minutes later, an individual mouse was placed in a round plexiglass jar (15 cm diameter, 18 cm high) and exposed to a sound stimulus of 110 decibels (11 kHz) delivered for 20 sec.

With `C[C@H](O)CNC(=O)/C=C/c1ccccc1` [KM-568, S(+)-(2E)-N-(2-hydroxypropyl)-3-phenylprop-2-enamide] the fold induction at 90 min, 0.1 mM [1] was 1, the fold induction at 90 min, 0.2 mM [1] was 0.7 and the fold induction at 90 min, 0.5 mM [1] was 0.7. The ED50 ([2]; Mus musculus, ip, 95% confidence interval in parentheses) was 94.1 mg/kg, the “Picrotoxin Results (protected/tested animals)” value ([2]; 70 mg/kg) was 1/8 and the “Picrotoxin Results (protected/tested animals)” value ([2]; 100 mg/kg) was 5/8. The “Picrotoxin Results (protected/tested animals)” value ([2]; 130 mg/kg) was 7/8, the “AUC (total area under curve, time of licking)” value ([3]; acute phase) was 184.18 and the “Reduction of time of licking of the affected paw” value ([3]; acute phase) was 24%. The “AUC % Control” value ([3]; acute phase) was 76.37 % Control, the “AUC (total area under curve, time of licking)” value ([3]; inflammatory phase) was 556.81 and the “Reduction of time of licking of the affected paw” value ([3]; inflammatory phase) was 32%. The “AUC % Control” value ([3]; inflammatory phase) was 67.96 % Control, the “Clonus (calculated metrazol dose causing clonus)” value ([4]; 44 mg/kg i.p.) was 50.8 ± 3.5 mg/kg and the “Twitch (calculated metrazol dose causing first twitch)” value ([4]; 44 mg/kg i.p.) was 37.8 ± 1.4 mg/kg. For the same compound, the Time to clonus ([4]; 44 mg/kg i.p.) was 48.2 ± 3.5 s, the Time to twitch ([4]; 44 mg/kg i.p.) was 35.8 ± 1.5 s and the “Clonus (calculated metrazol dose causing clonus)” value ([4]; 148 mg/kg i.p.) was 80.2 ± 3.2 mg/kg. For the same compound, the “Twitch (calculated metrazol dose causing first twitch)” value ([4]; 148 mg/kg i.p.) was 61.3 ± 2.2 mg/kg, the Time to clonus ([4]; 148 mg/kg i.p.) was 75.9 ± 2.9 s and the Time to twitch ([4]; 148 mg/kg i.p.) was 57.9 ± 1.6 s. For the same compound, the “Effect in NMDA receptor radioligand binding assay” value [5] was “No significant effects”, the ED50 ([6]; Mus musculus, ip) was over 130 mg/kg and the “Bicuculine Results (protected/tested animals)” value ([6]; i.p., 130 mg/kg) was 0/8. It also gave a fold induction at 90 min, 0.1 mM [7] of 0.1, a fold induction at 90 min, 0.2 mM [7] of 0.9 and a fold induction at 90 min, 0.5 mM [7] of 0.7. For the same compound, the “Results (protected/tested animals)” value ([8]; 10.0 mg/kg) was 1/8, the “Results (protected/tested animals)” value ([8]; 12.5 mg/kg) was 3/8 and the “Results (protected/tested animals)” value ([8]; 15.0 mg/kg) was 6/8. The “Results (protected/tested animals)” value ([8]; 17.5 mg/kg) was 7/8 and the ED50 ([8]; Mus musculus, ip) was 13.2 mg/kg.
